Results published in patent publication US20200086049A1, “Kit For Treating or Relieving Pain at Incision Site Following Surgical Procedure” (GENEWEL CO., LTD., priority 2017, published 2020).

Experiment: precipitation test for drug-containing mixture solutions
Format: physicochemical
Conditions: mixture solution containing crosslinked temperature-responsive viscous solution (DDK Gel: poloxamer and crosslinked alginate), FIG. 7
Text: In FIG. 7, DDK Gel means a gel composed of poloxamer and crosslinked alginate.

Compound: CC(C)Cc1ccc(C(C)C(=O)O)cc1 (centres unmarked) [ibuprofen]
- precipitate formation: formed a precipitate

Compound: gentamicin
- precipitate formation: sodium alginate was precipitated
